From paper PMC9065200, “Engineering of donor-acceptor-donor curcumin analogues as near-infrared fluorescent probes for in vivo imaging of amyloid-β species” (Theranostics, 2022) come the findings set out here.

The target of test [1] is T1, Aβ42 monomers (Homo sapiens, UniProt P05067).
T1 construct: gene APP; commercial Abeta(1-42) peptide (Nanjing Peptide Biotech), cut from APP precursor; monomer stock in hexafluoroisopropanol
The test is described as follows: fluorescence titration, one-site binding regression. As to conditions: read-out: Aβ monomers / Kd. From the text:
fluorescence titration, one-site binding regression on Aβ42 monomers

The target of test [2] is T2, Aβ42 oligomers (Homo sapiens, UniProt P05067).
T2 construct: gene APP; commercial Abeta(1-42) peptide, cut from APP precursor; soluble oligomers prepared via HFIP/water, stirred 24-48 h at ~22 °C, confirmed by TEM
The test is described as above. Conditions: read-out: Aβ oligomers / Kd. The text has this: fluorescence titration, one-site binding regression on Aβ42 oligomers

T1 sequence (P05067 672-713): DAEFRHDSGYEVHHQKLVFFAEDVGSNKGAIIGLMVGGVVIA
T2 sequence (P05067 672-713): as above

For the compound `CN(C)c1ccc2cc(/C=C/C3=CC(/C=C/C=C4N(C)c5ccccc5C4(C)C)=[O+][B-](F)(F)O3)ccc2c1` [compound 7, probe 7], the Kd in test [1] is 64.2 ± 5.38 nM; in test [2] it was 167 ± 19.9 nM.
